Experiments:
[1] = molecular target: RAC-gamma serine/threonine-protein kinase (Homo sapiens) (UniProt Q9Y243); details: Compound concentration 1000.0 nM
[2] = molecular target: Mitogen-activated protein kinase kinase kinase 6 (Homo sapiens) (UniProt O95382); details: Compound concentration 1000.0 nM
[3] = molecular target: Calcium/calmodulin-dependent protein kinase type 1 (Homo sapiens) (UniProt Q14012); details: Compound concentration 1000.0 nM
[4] = molecular target: Cyclin-dependent kinase 11B (Homo sapiens) (UniProt P21127); details: Compound concentration 1000.0 nM
[5] = molecular target: Cyclin-dependent kinase 13 (Homo sapiens) (UniProt Q14004); details: Compound concentration 1000.0 nM
[6] = molecular target: Serine/threonine-protein kinase Chk2 (Homo sapiens) (UniProt O96017); details: Compound concentration 1000.0 nM
[7] = tested on: Epidermal growth factor receptor (Homo sapiens), P00533 [G719C]; details: Compound concentration 1000.0 nM
[8] = molecular target: Ephrin type-A receptor 2 (Homo sapiens) (UniProt P29317); details: Compound concentration 1000.0 nM
[9] = molecular target: Ephrin type-A receptor 4 (Homo sapiens) (UniProt P54764); details: Compound concentration 1000.0 nM
[10] = molecular target: Ephrin type-A receptor 6 (Homo sapiens) (UniProt Q9UF33); details: Compound concentration 1000.0 nM
[11] = molecular target: Tyrosine-protein kinase Fer (Homo sapiens) (UniProt P16591); details: Compound concentration 1000.0 nM
[12] = molecular target: Vascular endothelial growth factor receptor 1 (Homo sapiens) (UniProt P17948); details: Compound concentration 1000.0 nM
[13] = tested on: Receptor-type tyrosine-protein kinase FLT3 (Homo sapiens), P36888 [D835V]; details: Compound concentration 1000.0 nM
[14] = tested on: Receptor-type tyrosine-protein kinase FLT3 (Homo sapiens), P36888 [UNDEFINED MUTATION]; details: Compound concentration 1000.0 nM
[15] = molecular target: Cyclin-G-associated kinase (Homo sapiens) (UniProt O14976); details: Compound concentration 1000.0 nM
[16] = molecular target: Interleukin-1 receptor-associated kinase 4 (Homo sapiens) (UniProt Q9NWZ3); details: Compound concentration 1000.0 nM
[17] = tested on: Mast/stem cell growth factor receptor Kit (Homo sapiens), P10721 [D816H]; details: Compound concentration 1000.0 nM
[18] = molecular target: Tyrosine-protein kinase Lck (Homo sapiens) (UniProt P06239); details: Compound concentration 1000.0 nM
[19] = molecular target: Microtubule-associated serine/threonine-protein kinase 1 (Homo sapiens) (UniProt Q9Y2H9); details: Compound concentration 1000.0 nM
[20] = molecular target: Maternal embryonic leucine zipper kinase (Homo sapiens) (UniProt Q14680); details: Compound concentration 1000.0 nM
[21] = molecular target: Misshapen-like kinase 1 (Homo sapiens) (UniProt Q8N4C8); details: Compound concentration 1000.0 nM
[22] = molecular target: Mitogen-activated protein kinase 11 (Homo sapiens) (UniProt Q15759); details: Compound concentration 1000.0 nM
[23] = molecular target: Serine/threonine-protein kinase PAK 2 (Homo sapiens) (UniProt Q13177); details: Compound concentration 1000.0 nM
[24] = molecular target: Serine/threonine-protein kinase PAK 5 (Homo sapiens) (UniProt Q9P286); details: Compound concentration 1000.0 nM
[25] = molecular target: Phosphatidylinositol 3-kinase C2 domain-containing subunit gamma (Homo sapiens) (UniProt O75747); details: Compound concentration 1000.0 nM
[26] = tested on: Phosphatidylinositol 4,5-bisphosphate 3-kinase catalytic subunit alpha isoform (Homo sapiens), P42336 [E542K]; details: Compound concentration 1000.0 nM
[27] = tested on: Phosphatidylinositol 4,5-bisphosphate 3-kinase catalytic subunit alpha isoform (Homo sapiens), P42336 [E545K]; details: Compound concentration 1000.0 nM
[28] = molecular target: Phosphatidylinositol 4,5-bisphosphate 3-kinase catalytic subunit beta isoform (Homo sapiens) (UniProt P42338); details: Compound concentration 1000.0 nM
[29] = molecular target: Phosphatidylinositol 4,5-bisphosphate 3-kinase catalytic subunit gamma isoform (Homo sapiens) (UniProt P48736); details: Compound concentration 1000.0 nM
[30] = molecular target: Phosphatidylinositol 4-phosphate 5-kinase type-1 alpha (Homo sapiens) (UniProt Q99755); details: Compound concentration 1000.0 nM
[31] = molecular target: Serine/threonine-protein kinase PLK1 (Homo sapiens) (UniProt P53350); details: Compound concentration 1000.0 nM
[32] = molecular target: Serine/threonine-protein kinase PLK2 (Homo sapiens) (UniProt Q9NYY3); details: Compound concentration 1000.0 nM
[33] = molecular target: Interferon-induced, double-stranded RNA-activated protein kinase (Homo sapiens) (UniProt P19525); details: Compound concentration 1000.0 nM
[34] = tested on: Proto-oncogene tyrosine-protein kinase receptor Ret (Homo sapiens), P07949 [V804L]; details: Compound concentration 1000.0 nM
[35] = molecular target: Receptor-interacting serine/threonine-protein kinase 1 (Homo sapiens) (UniProt Q13546); details: Compound concentration 1000.0 nM
[36] = molecular target: Receptor-interacting serine/threonine-protein kinase 2 (Homo sapiens) (UniProt O43353); details: Compound concentration 1000.0 nM
[37] = molecular target: Proto-oncogene tyrosine-protein kinase Src (Homo sapiens) (UniProt P12931); details: Compound concentration 1000.0 nM
[38] = molecular target: Serine/threonine-protein kinase tousled-like 1 (Homo sapiens) (UniProt Q9UKI8); details: Compound concentration 1000.0 nM
[39] = molecular target: Serine/threonine-protein kinase TNNI3K (Homo sapiens) (UniProt Q59H18); details: Compound concentration 1000.0 nM
[40] = molecular target: Testis-specific serine/threonine-protein kinase 1 (Homo sapiens) (UniProt Q9BXA7); details: Compound concentration 1000.0 nM
[41] = molecular target: Phosphatidylinositol 3-kinase catalytic subunit type 3 (Homo sapiens) (UniProt Q8NEB9); details: Compound concentration 1000.0 nM
[42] = molecular target: Tyrosine-protein kinase Yes (Homo sapiens) (UniProt P07947); details: Compound concentration 1000.0 nM
[43] = molecular target: 5-hydroxytryptamine receptor 7 (Homo sapiens) (UniProt P34969); details: Compound concentration 10.0 uM
[44] = molecular target: Histamine H4 receptor (Homo sapiens) (UniProt Q9H3N8); details: Compound concentration 10.0 uM

Sequence of Phosphatidylinositol 4,5-bisphosphate 3-kinase catalytic subunit alpha isoform (Homo sapiens), P42336 [E545K] (P42336 whole entry E545K, canonical isoform): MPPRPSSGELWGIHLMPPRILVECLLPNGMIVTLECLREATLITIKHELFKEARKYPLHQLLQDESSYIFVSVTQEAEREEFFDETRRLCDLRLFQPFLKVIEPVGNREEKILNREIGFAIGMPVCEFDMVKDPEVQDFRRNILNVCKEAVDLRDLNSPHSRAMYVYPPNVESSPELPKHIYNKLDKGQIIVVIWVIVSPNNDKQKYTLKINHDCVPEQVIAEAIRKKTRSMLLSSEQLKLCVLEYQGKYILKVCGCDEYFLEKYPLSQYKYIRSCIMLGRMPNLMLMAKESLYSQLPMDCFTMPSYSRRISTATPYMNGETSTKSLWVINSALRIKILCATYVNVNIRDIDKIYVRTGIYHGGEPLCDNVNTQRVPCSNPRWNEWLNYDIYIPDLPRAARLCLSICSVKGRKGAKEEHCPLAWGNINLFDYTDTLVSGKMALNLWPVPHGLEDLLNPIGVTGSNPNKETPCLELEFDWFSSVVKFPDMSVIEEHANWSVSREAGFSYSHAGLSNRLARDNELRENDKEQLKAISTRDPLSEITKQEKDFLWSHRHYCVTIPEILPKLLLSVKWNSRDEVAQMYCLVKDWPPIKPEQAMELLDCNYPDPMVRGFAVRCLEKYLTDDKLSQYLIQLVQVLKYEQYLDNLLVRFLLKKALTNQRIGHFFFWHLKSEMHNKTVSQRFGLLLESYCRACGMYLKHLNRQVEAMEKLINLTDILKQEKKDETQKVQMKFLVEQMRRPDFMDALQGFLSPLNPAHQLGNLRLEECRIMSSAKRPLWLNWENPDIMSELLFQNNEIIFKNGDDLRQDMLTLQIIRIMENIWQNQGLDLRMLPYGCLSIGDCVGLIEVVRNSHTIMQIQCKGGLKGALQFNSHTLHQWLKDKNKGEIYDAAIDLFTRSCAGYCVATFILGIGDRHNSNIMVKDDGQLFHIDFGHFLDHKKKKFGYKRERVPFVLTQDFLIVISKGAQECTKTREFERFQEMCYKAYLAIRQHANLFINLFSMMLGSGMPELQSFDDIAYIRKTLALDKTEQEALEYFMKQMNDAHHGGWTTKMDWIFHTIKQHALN
Sequence of Proto-oncogene tyrosine-protein kinase Src (Homo sapiens) (P12931 2-536 limits assumed): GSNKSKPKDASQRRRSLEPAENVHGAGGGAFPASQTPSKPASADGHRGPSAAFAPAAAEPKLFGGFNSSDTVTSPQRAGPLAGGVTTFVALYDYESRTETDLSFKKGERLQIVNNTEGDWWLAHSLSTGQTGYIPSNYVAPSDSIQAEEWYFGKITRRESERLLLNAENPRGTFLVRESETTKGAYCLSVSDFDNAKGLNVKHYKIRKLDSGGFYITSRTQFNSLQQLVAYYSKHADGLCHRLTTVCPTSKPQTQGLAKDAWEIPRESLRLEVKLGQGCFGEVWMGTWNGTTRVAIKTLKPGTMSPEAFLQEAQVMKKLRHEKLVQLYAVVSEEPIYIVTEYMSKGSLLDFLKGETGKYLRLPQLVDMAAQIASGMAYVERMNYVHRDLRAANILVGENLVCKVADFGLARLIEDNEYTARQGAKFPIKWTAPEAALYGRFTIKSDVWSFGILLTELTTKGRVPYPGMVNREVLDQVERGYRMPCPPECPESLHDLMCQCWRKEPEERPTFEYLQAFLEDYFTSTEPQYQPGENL
Sequence of Tyrosine-protein kinase Yes (Homo sapiens) (P07947 2-543 limits assumed): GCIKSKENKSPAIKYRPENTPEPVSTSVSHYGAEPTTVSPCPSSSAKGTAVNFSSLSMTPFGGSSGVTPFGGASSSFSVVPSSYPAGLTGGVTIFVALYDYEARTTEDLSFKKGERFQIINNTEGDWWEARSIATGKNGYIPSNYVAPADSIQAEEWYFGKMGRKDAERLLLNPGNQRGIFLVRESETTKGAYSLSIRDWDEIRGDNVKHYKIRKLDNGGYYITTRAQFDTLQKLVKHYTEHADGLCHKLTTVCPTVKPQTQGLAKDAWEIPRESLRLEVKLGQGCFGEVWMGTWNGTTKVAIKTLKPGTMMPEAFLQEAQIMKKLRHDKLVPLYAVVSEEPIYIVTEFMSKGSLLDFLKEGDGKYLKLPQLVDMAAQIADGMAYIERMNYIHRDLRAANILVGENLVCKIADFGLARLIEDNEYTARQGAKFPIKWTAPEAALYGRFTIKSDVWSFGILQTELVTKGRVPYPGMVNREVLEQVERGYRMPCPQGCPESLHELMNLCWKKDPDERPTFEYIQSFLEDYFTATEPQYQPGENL
Sequence of Maternal embryonic leucine zipper kinase (Homo sapiens) (Q14680 whole entry, looked up): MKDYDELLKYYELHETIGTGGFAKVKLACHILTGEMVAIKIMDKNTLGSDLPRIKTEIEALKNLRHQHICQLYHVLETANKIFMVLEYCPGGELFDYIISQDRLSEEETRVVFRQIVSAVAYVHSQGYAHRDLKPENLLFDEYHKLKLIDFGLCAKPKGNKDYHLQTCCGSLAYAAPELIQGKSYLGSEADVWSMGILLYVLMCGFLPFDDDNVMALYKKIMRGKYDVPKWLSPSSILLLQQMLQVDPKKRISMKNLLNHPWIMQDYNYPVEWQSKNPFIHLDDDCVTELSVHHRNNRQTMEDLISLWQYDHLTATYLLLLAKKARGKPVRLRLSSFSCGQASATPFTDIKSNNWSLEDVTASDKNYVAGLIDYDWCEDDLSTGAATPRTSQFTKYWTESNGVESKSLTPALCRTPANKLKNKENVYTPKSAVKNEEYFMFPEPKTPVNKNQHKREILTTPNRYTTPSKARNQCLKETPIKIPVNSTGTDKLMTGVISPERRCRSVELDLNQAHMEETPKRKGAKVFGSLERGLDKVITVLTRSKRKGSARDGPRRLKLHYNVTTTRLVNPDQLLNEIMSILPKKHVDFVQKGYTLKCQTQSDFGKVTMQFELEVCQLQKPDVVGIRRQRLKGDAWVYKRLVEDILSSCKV
Sequence of Phosphatidylinositol 4,5-bisphosphate 3-kinase catalytic subunit beta isoform (Homo sapiens) (P42338 whole entry, looked up, canonical isoform): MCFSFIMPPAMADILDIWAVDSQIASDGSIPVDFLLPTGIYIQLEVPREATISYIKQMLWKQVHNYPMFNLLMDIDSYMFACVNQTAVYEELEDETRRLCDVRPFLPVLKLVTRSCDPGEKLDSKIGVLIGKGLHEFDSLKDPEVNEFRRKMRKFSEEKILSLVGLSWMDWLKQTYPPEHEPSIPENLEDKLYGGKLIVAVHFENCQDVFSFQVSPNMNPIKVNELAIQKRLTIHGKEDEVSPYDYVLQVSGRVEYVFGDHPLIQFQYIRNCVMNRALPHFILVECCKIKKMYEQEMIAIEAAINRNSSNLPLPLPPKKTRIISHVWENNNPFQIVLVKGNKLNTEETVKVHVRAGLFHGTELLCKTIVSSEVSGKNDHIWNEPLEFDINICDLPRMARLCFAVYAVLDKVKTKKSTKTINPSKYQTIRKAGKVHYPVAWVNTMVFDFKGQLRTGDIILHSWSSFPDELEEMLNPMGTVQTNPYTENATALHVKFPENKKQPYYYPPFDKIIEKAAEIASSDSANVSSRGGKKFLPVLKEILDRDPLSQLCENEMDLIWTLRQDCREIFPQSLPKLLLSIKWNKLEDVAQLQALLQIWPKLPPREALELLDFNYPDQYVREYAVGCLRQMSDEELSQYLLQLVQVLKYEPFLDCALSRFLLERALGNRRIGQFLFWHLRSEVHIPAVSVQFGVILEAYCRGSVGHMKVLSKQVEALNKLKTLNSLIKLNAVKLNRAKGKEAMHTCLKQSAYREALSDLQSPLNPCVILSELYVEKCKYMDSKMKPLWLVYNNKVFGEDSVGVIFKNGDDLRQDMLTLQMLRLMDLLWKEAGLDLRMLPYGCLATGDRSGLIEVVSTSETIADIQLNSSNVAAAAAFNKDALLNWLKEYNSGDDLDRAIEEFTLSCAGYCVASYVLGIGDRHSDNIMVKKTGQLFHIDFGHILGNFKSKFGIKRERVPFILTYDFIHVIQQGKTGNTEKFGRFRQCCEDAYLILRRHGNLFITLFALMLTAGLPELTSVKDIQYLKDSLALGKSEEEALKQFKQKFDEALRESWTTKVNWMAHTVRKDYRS
Sequence of Phosphatidylinositol 4,5-bisphosphate 3-kinase catalytic subunit gamma isoform (Homo sapiens) (P48736 whole entry, looked up, canonical isoform): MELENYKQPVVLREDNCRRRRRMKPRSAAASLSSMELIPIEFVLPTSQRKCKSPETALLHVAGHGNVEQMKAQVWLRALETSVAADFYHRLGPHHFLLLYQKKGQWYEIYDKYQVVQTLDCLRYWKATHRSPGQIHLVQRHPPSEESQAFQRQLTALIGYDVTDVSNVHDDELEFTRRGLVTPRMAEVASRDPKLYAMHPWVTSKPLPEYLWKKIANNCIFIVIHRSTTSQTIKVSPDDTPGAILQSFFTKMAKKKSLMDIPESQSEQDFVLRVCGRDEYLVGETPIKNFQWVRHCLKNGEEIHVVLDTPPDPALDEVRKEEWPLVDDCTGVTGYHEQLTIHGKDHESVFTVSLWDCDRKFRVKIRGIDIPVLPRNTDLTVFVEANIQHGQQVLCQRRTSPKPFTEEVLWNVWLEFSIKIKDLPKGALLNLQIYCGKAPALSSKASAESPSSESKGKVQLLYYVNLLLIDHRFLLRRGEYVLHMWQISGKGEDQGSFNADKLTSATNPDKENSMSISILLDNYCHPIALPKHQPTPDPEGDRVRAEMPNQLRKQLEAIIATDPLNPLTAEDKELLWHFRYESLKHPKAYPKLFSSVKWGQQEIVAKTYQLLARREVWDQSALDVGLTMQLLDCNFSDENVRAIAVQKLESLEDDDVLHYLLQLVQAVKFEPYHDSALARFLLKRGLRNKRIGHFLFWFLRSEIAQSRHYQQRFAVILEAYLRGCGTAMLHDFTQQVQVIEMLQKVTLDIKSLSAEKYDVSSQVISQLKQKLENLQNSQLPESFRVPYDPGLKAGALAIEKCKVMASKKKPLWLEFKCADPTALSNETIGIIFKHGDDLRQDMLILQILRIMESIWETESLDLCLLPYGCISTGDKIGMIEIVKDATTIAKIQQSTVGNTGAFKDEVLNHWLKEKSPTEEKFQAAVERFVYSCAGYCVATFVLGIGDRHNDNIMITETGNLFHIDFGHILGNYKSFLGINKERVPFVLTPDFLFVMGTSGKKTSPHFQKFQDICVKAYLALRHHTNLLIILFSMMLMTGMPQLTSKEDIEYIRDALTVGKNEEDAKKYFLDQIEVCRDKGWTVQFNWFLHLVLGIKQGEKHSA

CN([C@@H]1CCc2c(CC(=O)O)c3cc(S(C)(=O)=O)ccc3n2C1)S(=O)(=O)c1ccc(F)cc1
inactive: residual activity [1] 83% | residual activity [2] 89% | residual activity [3] 80% | residual activity [4] 100% | residual activity [5] 86% | residual activity [6] 100% | residual activity [7] 98% | residual activity [8] 100% | residual activity [9] 93% | residual activity [10] 91% | residual activity [11] 100% | residual activity [12] 88% | residual activity [13] 99% | residual activity [14] 98% | residual activity [15] 93% | residual activity [16] 95% | residual activity [17] 97% | residual activity [18] 100% | residual activity [19] 93% | residual activity [20] 84% | residual activity [21] 92% | residual activity [22] 83% | residual activity [23] 100% | residual activity [24] 100% | residual activity [25] 82% | residual activity [26] 88% | residual activity [27] 84% | residual activity [28] 100% | residual activity [29] 100% | residual activity [30] 100% | residual activity [31] 93% | residual activity [32] 90% | residual activity [33] 100% | residual activity [34] 100% | residual activity [35] 93% | residual activity [36] 100% | residual activity [37] 96% | residual activity [38] 100% | residual activity [39] 100% | residual activity [40] 100% | residual activity [41] 100% | residual activity [42] 88% | inhibition [43] -3.44% | inhibition [44] 16%

CN([C@@H]1CCc2c(CC(=O)O)c3ccccc3n2C1)S(=O)(=O)c1ccc(F)cc1 [MK-7246]
inactive: residual activity [1] 100% | residual activity [2] 80% | residual activity [3] 100% | residual activity [4] 100% | residual activity [5] 95% | residual activity [6] 100% | residual activity [7] 100% | residual activity [8] 100% | residual activity [9] 87% | residual activity [10] 91% | residual activity [11] 100% | residual activity [12] 100% | residual activity [13] 94% | residual activity [14] 96% | residual activity [15] 100% | residual activity [16] 93% | residual activity [17] 95% | residual activity [18] 100% | residual activity [19] 100% | residual activity [20] 93% | residual activity [21] 100% | residual activity [22] 88% | residual activity [23] 100% | residual activity [24] 100% | residual activity [25] 95% | residual activity [26] 86% | residual activity [27] 86% | residual activity [28] 88% | residual activity [29] 100% | residual activity [30] 100% | residual activity [31] 98% | residual activity [32] 92% | residual activity [33] 100% | residual activity [34] 99% | residual activity [35] 100% | residual activity [36] 92% | residual activity [37] 100% | residual activity [38] 100% | residual activity [39] 100% | residual activity [40] 100% | residual activity [41] 97% | residual activity [42] 100% | inhibition [43] 4.11% | inhibition [44] 25.9%
